Measured values reported in patent US20080146555A1, “Uses of Kinase Inhibitors and Compositions Thereof” (GPC Biotech, Inc, priority 2004, published 2008).
Counter-ions that a name gives are not always drawn. Like-named read-outs stand apart in the source and are kept apart here.

Legend:
[1] = tested on: normal human fibroblast, IMR90; experiment: Calcein AM viability assay, IMR90; format: cell-based; conditions: IMR-90, text b600
In short: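 Cells (HCT-116 1,000, IMR90 4,000 per well) adhered overnight, then received 7 doses from 0 to 250 nM for 72 h at 37 °C. Viability read as calcein fluorescence after 75 min with Calcein AM; IC50 values, with protein-adjusted values also obtained in HCT-116.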

Abl (c-Abl) = target: T1, Abl (c-Abl) (Homo sapiens, UniProt P00519); experiment: Abl kinase assay; format: biochemical
T1 construct: purchased Upstate 14-529
Protocol: • 1. 5× Reaction Buffer: 40 mM MOPS, pH 7.0, 1 mM EDTA. • 2. Enzyme Dilution Buffer (EDB): 20 mM MOPS, pH 7.0, 1 mM EDTA, 0.01% Brij-35, 5% glycerol, 0.1% β-mercaptoethanol, 1 mg/ml BSA. • 3. Abl, active: Dilute to 0.2-8 ng/μl with EDB. Use 2.5-μl per assay point. • 4. […] Use 2.5 μl per assay point for a final assay concentration of 50 μM per assay point. • 5. [γ-^32P]ATP: Stock 1 mCi/100 μl (3000 Ci/mmol, obtained from PerkinElmer, Cat. # BLU002A). Make 10 μl aliquots (100 μCi/vial).
• 1. Add 5 μl of 5× Reaction Buffer per assay. • 2. Add 2.5 μl of Abltide (50 μM). • 3. Add 2.5 μl of Abl (human), active (0.5-20 ng). • 4. Add 5 μl sterile, distilled water. • 5. Add 10 μl of the diluted [γ-^32P]ATP solution. • 6. Incubate for 10 minutes at 30° C. • 7. Transfer a 20 μl aliquot onto the center of a 2 cm×2 cm P81 paper. • 8. […] Wash the assay squares once for 5 minutes with acetone. • 10. Transfer the assay squares to vial and add 5 ml scintillation cocktail. • 11. Read in scintillation counter. Compare cpm of enzyme samples to cpm of control samples that contain background control.

Cdk7 = Cdk7 (Homo sapiens, UniProt P50613); experiment: Cdk7 inhibition; format: biochemical
Excerpt: Further inhibition results for subject compounds of the invention against other CDKs and further kinases are shown in Table 5, Table II and described in Example 6.
Table 3, Table 4, Table 5 and Table II show the results obtained for inhibition of a broad range of such kinases for subject compounds of the invention.

Yes = target: T2, Yes (Homo sapiens, UniProt P07947); experiment: Yes kinase assay; format: biochemical
T2 construct: purchased Upstate 14-478
Protocol: • 1. 2.5× Reaction Buffer: 20 mM MOPS, 0.5 mM EDTA. • 2. Enzyme Dilution Buffer (EDB): 20 mM MOPS pH 7.0, 1 mM EDTA, 0.01% Brij-35, 5% glycerol, 0.1% β-mercaptoethanol, 1 mg/ml BSA. • 3. Yes, active: Dilute to 0.4 ng-4 ng/μl with EDB. Use 2.5 μl per assay point. • 4. Poly(Glu-4-Tyr) substrate: Prepare a 1 mg/ml stock solution. Use 2.5 μl per assay point for a final concentration of 0.1 mg/ml per assay point. • 5. [γ-^32P]ATP: Stock 1 mCi/100 μl (3000 Ci/mmol, obtained from PerkinElmer, Cat. # BLU002A). Make 10 μl aliquots (100 μCi/vial). Before starting the assay, dilute an aliquot to 1 μCi/μl with 90 μl of 75 mM MgCl2 and 500 μM cold ATP in 20 mM MOPS, pH 7.2, 25 mM β-glycerol phosphate, 5 mM EGTA, 1 mM sodium orthovanadate, 1 mM dithiothreitol.
• 1. Add 10 μl of 2.5× Reaction Buffer per assay. • 2. Add 2.5 μl of Poly(Glu-4-Tyr) substrate (0.1 mg/ml). • 3. Add 2.5 μl of Yes, active (1 ng-10 ng). • 4. Add […] of the diluted [γ-^32P]ATP solution. • 5. Incubate for 10 minutes at 30° C. • 6. Transfer a 20 μl aliquot onto the center of a 2 cm×2 cm P81 paper. • 7. Wash the assay squares three times for 5 minutes with 0.75% phosphoric acid. • 8. Wash the assay squares once for 5 minutes with acetone. • 9. Transfer the assay squares to vial and add 5 ml scintillation cocktail. • 10. Read in scintillation counter. Compare cpm of enzyme samples to cpm of control samples that contain background control.

cell cycle = experiment: Cell cycle arrest; format: cell-based
[2] = Table II, read-out: ABL1 Inhibition (IC50)
[3] = read-out: Abl (wild-type c-Abl) IC50
[4] = read-out: YES1 Inhibition (IC50)

T1 sequence (P00519 whole entry): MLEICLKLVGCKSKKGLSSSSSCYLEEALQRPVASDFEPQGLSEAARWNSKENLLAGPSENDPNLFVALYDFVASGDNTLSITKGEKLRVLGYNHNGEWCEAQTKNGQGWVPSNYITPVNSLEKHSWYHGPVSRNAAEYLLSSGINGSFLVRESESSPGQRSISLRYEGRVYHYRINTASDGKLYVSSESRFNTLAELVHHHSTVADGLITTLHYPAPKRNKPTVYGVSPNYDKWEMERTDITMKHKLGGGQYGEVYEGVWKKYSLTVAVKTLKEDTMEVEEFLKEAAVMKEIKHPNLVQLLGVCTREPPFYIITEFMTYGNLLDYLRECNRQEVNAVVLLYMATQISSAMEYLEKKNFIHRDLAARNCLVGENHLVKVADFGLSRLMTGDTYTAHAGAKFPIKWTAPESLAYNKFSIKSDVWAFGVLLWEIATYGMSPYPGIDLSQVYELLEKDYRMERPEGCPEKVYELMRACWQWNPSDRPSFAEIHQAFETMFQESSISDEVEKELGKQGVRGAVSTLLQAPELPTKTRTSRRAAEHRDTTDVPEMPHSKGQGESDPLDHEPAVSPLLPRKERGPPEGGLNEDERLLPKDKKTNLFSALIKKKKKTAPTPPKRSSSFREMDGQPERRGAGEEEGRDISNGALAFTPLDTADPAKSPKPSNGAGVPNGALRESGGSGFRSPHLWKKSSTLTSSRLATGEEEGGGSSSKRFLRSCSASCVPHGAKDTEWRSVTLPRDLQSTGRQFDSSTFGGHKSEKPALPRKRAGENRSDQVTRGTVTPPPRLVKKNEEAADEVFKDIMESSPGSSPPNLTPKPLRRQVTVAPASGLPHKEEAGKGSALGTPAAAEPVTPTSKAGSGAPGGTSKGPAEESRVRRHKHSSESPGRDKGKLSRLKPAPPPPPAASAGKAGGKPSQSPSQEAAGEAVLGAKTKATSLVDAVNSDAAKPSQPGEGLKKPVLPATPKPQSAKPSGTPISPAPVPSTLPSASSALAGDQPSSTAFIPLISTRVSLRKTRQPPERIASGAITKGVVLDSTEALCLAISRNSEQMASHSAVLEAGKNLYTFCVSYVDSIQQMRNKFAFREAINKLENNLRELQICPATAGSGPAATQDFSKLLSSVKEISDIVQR
T2 sequence (P07947 whole entry): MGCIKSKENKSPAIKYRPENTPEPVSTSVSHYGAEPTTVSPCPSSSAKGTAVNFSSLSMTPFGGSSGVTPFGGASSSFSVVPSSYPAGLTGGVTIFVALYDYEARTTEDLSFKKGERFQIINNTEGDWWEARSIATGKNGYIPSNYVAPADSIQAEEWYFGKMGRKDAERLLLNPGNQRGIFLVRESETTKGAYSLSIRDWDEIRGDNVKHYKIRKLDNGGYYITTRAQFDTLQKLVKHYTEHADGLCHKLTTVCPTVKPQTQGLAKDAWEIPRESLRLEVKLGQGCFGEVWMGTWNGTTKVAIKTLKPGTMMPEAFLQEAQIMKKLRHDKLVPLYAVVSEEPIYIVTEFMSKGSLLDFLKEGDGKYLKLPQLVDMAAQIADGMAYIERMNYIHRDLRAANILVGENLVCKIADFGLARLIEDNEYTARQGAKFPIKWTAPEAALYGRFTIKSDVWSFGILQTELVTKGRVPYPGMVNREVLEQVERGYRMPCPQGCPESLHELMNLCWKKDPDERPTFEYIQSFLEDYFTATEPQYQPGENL
Chain of Cdk7 (P50613 whole entry, species assumed): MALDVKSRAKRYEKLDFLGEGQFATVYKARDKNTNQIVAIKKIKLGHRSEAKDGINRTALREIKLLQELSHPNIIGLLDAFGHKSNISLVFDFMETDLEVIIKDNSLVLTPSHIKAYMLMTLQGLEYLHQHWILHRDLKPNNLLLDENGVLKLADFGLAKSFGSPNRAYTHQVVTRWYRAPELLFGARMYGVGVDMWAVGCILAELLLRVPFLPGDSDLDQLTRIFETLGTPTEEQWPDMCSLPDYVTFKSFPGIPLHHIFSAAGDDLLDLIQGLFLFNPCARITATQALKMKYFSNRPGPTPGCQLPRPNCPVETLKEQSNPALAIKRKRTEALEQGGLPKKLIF
Chain of Cdk7 (P51946 whole entry partner, species assumed): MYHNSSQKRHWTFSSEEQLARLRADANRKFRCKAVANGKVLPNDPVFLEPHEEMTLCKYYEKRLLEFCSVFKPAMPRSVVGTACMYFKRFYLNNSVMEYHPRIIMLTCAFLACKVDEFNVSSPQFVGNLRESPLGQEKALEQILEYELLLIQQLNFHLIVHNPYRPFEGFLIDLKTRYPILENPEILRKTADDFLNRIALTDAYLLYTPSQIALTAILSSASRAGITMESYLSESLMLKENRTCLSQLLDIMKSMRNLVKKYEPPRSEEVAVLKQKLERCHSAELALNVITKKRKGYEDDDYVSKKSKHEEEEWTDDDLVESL
Chain of Cdk7 (P51948 whole entry partner, species assumed): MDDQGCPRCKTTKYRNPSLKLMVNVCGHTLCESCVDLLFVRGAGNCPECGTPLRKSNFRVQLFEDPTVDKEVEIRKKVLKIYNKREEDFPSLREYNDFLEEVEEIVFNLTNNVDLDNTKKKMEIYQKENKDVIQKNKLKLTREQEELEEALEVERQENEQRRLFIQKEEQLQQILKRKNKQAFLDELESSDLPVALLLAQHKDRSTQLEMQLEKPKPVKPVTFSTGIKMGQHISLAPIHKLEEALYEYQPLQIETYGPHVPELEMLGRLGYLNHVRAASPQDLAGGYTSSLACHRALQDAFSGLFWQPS

Row | Structure (SMILES) | IC50 [1] [nM] | IC50 (Abl (c-Abl); Table AA, read-out: Abl IC50) [nM] | IC50 (Abl (c-Abl); [2]) [nM] | IC50 (Abl (c-Abl); [3]) [nM] | IC50 (Cdk7) [nM] | IC50 (Yes; [4]) [nM] | cell cycle arrest (cell cycle) | IC50 (Yes; kinase panel, 10 μM ATP, read-out: Yes IC50) [nM]
1 | CC(C)N1CCN(C(=O)COc2ccc(-c3n[nH]c4c3C(=O)c3c(NC(=O)NN5CCOCC5)cccc3-4)cc2)CC1 [Compound A37] | < 50 | 35 | < 50 | < 50 | < 500 | < 50 | predominantly G1 arrest | 
2 | COCCN1CCN(Cc2ccc(-c3n[nH]c4c3C(=O)c3c(NC(=O)NN5CCOCC5)cccc3-4)cc2)CC1 [Compound B16, N-[3-(4-{[4-(2-methoxyethyl)piperazinyl]methyl}phenyl)-4-oxoindeno[2,3-d]pyrazol-5-yl](morpholin-4-ylamino)carboxamide dihydrochloride] | < 100 | 52 | < 100 | < 100 | < 50 | < 50 | predominantly G1 arrest | < 100
